Literature values, collected in patent US20170119783A1, “Method for Treating Cognitive Impairment Associated With Neurodegenerative Disorders” (priority 2014, published 2017).
Like-named read-outs stand apart in the source and are kept apart here.

Columns and labels:
[1] = within the group of artemisinin analogs
[2] = test system: Ehrlich ascots tumor cells
cancer cells = conditions: more effective for hepatoma and embryonic lung cells than human gastric cancer cells
nucleic acid synthesis = conditions: relative to artemisinin

| SMILES | water solubility (in words) | efficacy against Ehrlich ascots tumor cells (in words) [2] | ability to inhibit nucleic acid synthesis, times the activity of artemisinin (nucleic acid synthesis) [times] | also measured |
| --- | --- | --- | --- | --- |
| C[C@@H]1[C@H](OCc2ccc(C(=O)O)cc2)O[C@@H]2O[C@@]3(C)CC[C@@H]4[C@@H](C)CC[C@@H]1[C@]24OO3 [Artelinic acid] | most water-soluble | efficacy against Ehrlich ascots tumor cells |  | stability (in words) [1]: most stable; water solubility (in words) (listed as artelinic acid): higher solubility in water |
| CO[C@H]1O[C@@H]2O[C@@]3(C)CC[C@H]4[C@H](C)CC[C@@H]([C@H]1C)[C@@]24OO3 [Artemether] | higher solubility in water |  |  |  |
| C[C@@H]1CC[C@H]2[C@@H](C)C(=O)O[C@@H]3O[C@@]4(C)CC[C@@H]1[C@]32OO4 [Artemisinin, (3R,5aS,6R,8aS,9R,12S,12aR)-octahydro-3,6,9-trimethyl-3,12-epoxy-12H-pyr-ano[4,3-j]-1,2-benzodioxepin-10(3H)-one] | poor water solubility | efficacy against Ehrlich ascots tumor cells |  | toxicity to cancer cells in vitro (in words) (cancer cells): toxic to cancer cells in vitro |
| C[C@H]1[C@H](N2CCS(=O)(=O)CC2)O[C@@H]2O[C@@]3(C)CC[C@H]4[C@H](C)CC[C@@H]1[C@@]24OO3 [Artemisone] |  |  |  | antimalarial activity (in words) (Plasmodium falciparum; Haynes et al. 2006): high antimalarial activity |
| C[C@H]1[C@@H](O)O[C@@H]2O[C@@]3(C)CC[C@H]4[C@H](C)CC[C@@H]1[C@@]24OO3 [Dihydroartemisinin] | higher solubility in water |  |  |  |
| CCO[C@H]1O[C@@H]2O[C@@]3(C)CC[C@H]4[C@H](C)CC[C@@H]([C@H]1C)[C@@]24OO3 [arteether] | higher solubility in water | efficacy against Ehrlich ascots tumor cells | 100 |  |
| C[C@H]1[C@H](OC(=O)CCC(=O)O)O[C@@H]2O[C@@]3(C)CC[C@H]4[C@H](C)CC[C@@H]1[C@@]24OO3 [artesunate] |  |  | 100 | antimalarial potency, times that of artemisinin (Plasmodium falciparum; relative to artemisinin): 5.2 times |
| CCCOC(=O)OC1O[C@@H]2O[C@@]3(C)CC[C@H]4[C@H](C)CC[C@@H]([C@H]1C)[C@@]24OO3 (stereo partly shown) [propylcarbonate dihydroartemisinin] | higher solubility in water |  | 100 |  |
| C[C@H]1[C@@H](OCc2ccc(C(=O)O)cc2)O[C@@H]2O[C@]3(C)CC[C@H]4[C@H](C)CC[C@@H]1[C@@]24OO3 [sodium artelinate] |  | efficacy against Ehrlich ascots tumor cells |  |  |
| C[C@H]1[C@H](OC(=O)CCC(=O)[O-])O[C@@H]2O[C@@]3(C)CC[C@H]4[C@H](C)CC[C@@H]1[C@@]24OO3.[Na+] [sodium artesunate] |  | efficacy against Ehrlich ascots tumor cells |  |  |
